Laboratory results reported in patent US12528778B2, “Microbiocidal derivatives” (SYNGENTA CROP PROTECTION AG, priority 2019, dated 2026).

Key:
[1] = system: Mycosphaerella graminicola (Septoria tritici); assay: Mycosphaerella graminicola (Septoria tritici) / liquid culture (Septoria blotch); format: cell-based; conditions: Zymoseptoria tritici, PDB liquid culture, 24° C., growth inhibition determined photometrically 4-5 days after application, vs untreated control
Experimental: Example B12: Mycosphaerella graminicola (Septoria tritici)/Liquid Culture (Septoria Blotch) Conidia of the fungus from cryogenic storage are directly mixed into nutrient broth (PDB potato dextrose broth). After placing a (DMSO) solution of test compound into a microtiter plate (96-well format), the nutrient broth containing the fungal spores is added. The test plates are incubated at 24° C. and the inhibition of growth is determined photometrically 4-5 days after application. […] […]-48, and P-49.

[2] = system: Mycosphaerella arachidis (Cercospora arachidicola); assay: Mycosphaerella arachidis (Cercospora arachidicola) / liquid culture (early leaf spot); format: cell-based; conditions: PDB liquid culture, 24° C., growth inhibition determined photometrically 4-5 days after application, vs untreated control
Experimental: Example B6: Mycosphaerella arachidis (Cercospora arachidicola)/Liquid Culture (Early Leaf Spot) Conidia of the fungus from cryogenic storage are directly mixed into nutrient broth (PDB potato dextrose broth). After placing a (DMSO) solution of test compound into a microtiter plate (96-well format), the nutrient broth containing the fungal spores is added. The test plates are incubated at 24° C. and the inhibition of growth is determined photometrically 4-5 days after application. […] […]-44, and P-48.

[3] = system: Monographella nivalis (Microdochium nivale); assay: Monographella nivalis (Microdochium nivale) / liquid culture (foot rot cereals); format: cell-based; conditions: PDB liquid culture, 24° C., growth inhibition determined photometrically 4-5 days after application, vs untreated control
Experimental: (§1) Example B5: Monographella nivalis (Microdochium nivale)/Liquid Culture (Foot Rot Cereals) Conidia of the fungus from cryogenic storage are directly mixed into nutrient broth (PDB potato dextrose broth). After placing a (DMSO) solution of test compound into a microtiter plate (96-well format), the nutrient broth containing the fungal spores is added. The test plates are incubated at 24° C. and the inhibition of growth is determined photometrically 4-5 days after application. […] […]-49, and P-50.

[4] = system: Glomerella lagenarium (Colletotrichum lagenarium); assay: Glomerella lagenarium (Colletotrichum lagenarium) / liquid culture (anthracnose); format: cell-based; conditions: Colletotrichum orbiculare, PDB liquid culture, 24° C., growth inhibition measured photometrically 3-4 days after application, vs untreated control
Experimental: as §1, with “B2: Glomerella lagenarium (Colletotrichum lagenarium)/Liquid” for “B5: Monographella nivalis (Microdochium nivale)/Liquid”, “(Anthracnose)” for “(Foot Rot Cereals)”, “measured” for “determined”, “3-4” for “4-5”

[5] = system: Magnaporthe grisea (Pyricularia oryzae); assay: whole plant or invertebrate; format: in vivo; conditions: foliar, read-out: control of Magnaporthe grisea
[6] = system: Blumeria graminis f. sp. tritici (Erysiphe graminis f. sp. tritici); assay: Blumeria graminis f. sp. tritici / wheat / leaf disc preventative (powdery mildew on wheat); format: in vivo; conditions: foliar, wheat leaf segments cv. Kanzler, inoculated 1 day after application, assessed 6-8 days after application, vs untreated control
Experimental: Example B3: Blumeria graminis f. sp. tritici (Erysiphe graminis f. so. tritici)/Wheat/Leaf Disc Preventative (Powdery Mildew on Wheat) Wheat leaf segments cv. Kanzler are placed on agar in a multiwell plate (24-well format) and sprayed with the formulated test compound diluted in water. The leaf disks are inoculated by shaking powdery mildew infected plants above the test plates 1 day after application. The inoculated leaf disks are incubated at 20°° C. and 60% rh under a light regime of 24 h darkness followed by 12 h light/12 h darkness in a climate chamber and the activity of a compound is assessed as percent disease control compared to untreated when an appropriate level of disease damage appears on untreated check leaf segments (6-8 days after application). […]-45, and P-50.

[7] = system: Puccinia recondita f. sp. tritici; assay: Puccinia recondita f. sp. tritici / wheat / leaf disc preventative (brown rust); format: in vivo; conditions: foliar, wheat leaf segments cv. Kanzler, inoculated 1 day after application, assessed 7-9 days after application, vs untreated control
Experimental: Example B8: Puccinia recondita f. sp. tritici/Wheat/Leaf Disc Preventative (Brown rust) Wheat leaf segments cv. Kanzler are placed on agar in multiwell plates (24-well format) and sprayed with the formulated test compound diluted in water. The leaf disks are inoculated with a spore suspension of the fungus 1 day after application. The inoculated leaf segments are incubated at 19° C. and 75% rh under a light regime of 12 h light/12 h darkness in a climate cabinet and the activity of a compound is assessed as percent disease control compared to untreated when an appropriate level of disease damage appears in untreated check leaf segments (7-9 days after application).

Alternaria solani = Alternaria solani / tomato / leaf disc (early blight); format: in vivo; conditions: foliar, tomato leaf disks cv. Baby, inoculated 2 days after application, assessed 5-7 days after application, vs untreated control
Experimental: Example B1: Alternaria solani/Tomato/Leaf Disc (Early Blight) Tomato leaf disks cv. Baby are placed on agar in multiwell plates (24-well format) and sprayed with the formulated test compound diluted in water. The leaf disks are inoculated with a spore suspension of the fungus 2 days after application. The inoculated leaf disks are incubated at 23° C./21° C. […] […]-43, and P-44.

[8] = system: Botryotinia fuckeliana (Botrytis cinerea); assay: Botryotinia fuckeliana (Botrytis cinerea) / liquid culture (gray mould); format: cell-based; conditions: 20 ppm; Vogels broth liquid culture, 24° C., growth inhibition determined photometrically 3-4 days after application; vs untreated control
Experimental: Example B13: Botryotinia fucleliana (Botrytis cinerea)/Liquid Culture (Gray Mould) Conidia of the fungus from cryogenic storage are directly mixed into nutrient broth (Vogels broth). After placing a (DMSO) solution of test compound into a microtiler plate (96-well format), the nutrient broth containing the fungal spores is added. The test plates are incubated at 24° C. and the inhibition of growth is determined photometrically 3-4 days after application. […] P-25.

SMILES | inhibition of growth at 20 ppm [1] [%] | inhibition of growth at 20 ppm [2] [%] | inhibition of growth at 20 ppm [3] [%] | inhibition of growth at 20 ppm [4] [%] | pest or weed control at 200 ppm [5] [%] | pest or weed control at 200 ppm [6] [%] | pest or weed control at 200 ppm [7] [%] | pest or weed control at 200 ppm (Alternaria solani) [%] | control of Botryotinia fuckeliana [8]
COc1ncc(Nc2cccc(F)c2)nc1C(=O)NC1CCC1(C)C (stereo not drawn) [Compound P-5, N-(2.2-dimethylcyclobutyl)-6-(3-fluoroanilino)-3-methoxy-pyrazine-2-carboxamide] | ≥ 80 | ≥ 80 | ≥ 80 | ≥ 80 | ≥ 80 | ≥ 80 | ≥ 80 | ≥ 80 | –
COc1ncc(Nc2cc(F)cc(F)c2)nc1C(=O)NC1COC2(CC2)C1 (stereo not drawn) [Compound P-20, 6-(3,5-difluoroanilino)-3-methoxy-N-(4-oxaspiro[2.4]heptan-6-yl)pyrazine-2-carboxamide] | ≥ 80 | ≥ 80 | ≥ 80 | ≥ 80 | ≥ 80 | ≥ 80 | ≥ 80 | ≥ 80 | –
COc1ncc(Nc2cc(F)cc(F)c2)nc1C(=O)NCC1(C)CCOC2(CCC2)C1 (stereo not drawn) [Compound P-22, 6-(3,5-difluoroanilino)-3-methoxy-N-[(8-methyl-5-oxaspiro[3.5]nonan-8-yl)methyl]pyrazine-2-carboxamide] | ≥ 80 | ≥ 80 | ≥ 80 | ≥ 80 | ≥ 80 | ≥ 80 | ≥ 80 | ≥ 80 | –
COc1ncc(Nc2cc(F)cc(F)c2)nc1C(=O)NCC1(C(F)(F)F)CC1 [Compound P-25, 6-(3,5-difluoroanilino)-3-methoxy-N-[[1-(trifluoromethyl)cyclopropyl]methyl] pyrazine-2-carboxamide] | ≥ 80 | ≥ 80 | ≥ 80 | ≥ 80 | ≥ 80 | ≥ 80 | ≥ 80 | ≥ 80 | at least 80%
COc1ncc(Nc2cc(F)cc(F)c2)nc1C(=O)NC(C)(C)C [Compound P-38, N-tert-butyl-6-(3,5-difluoroanilino)-3-methoxy-pyrazine-2-carboxamide] | ≥ 80 | ≥ 80 | ≥ 80 | ≥ 80 | ≥ 80 | ≥ 80 | ≥ 80 | ≥ 80 | –
COc1ncc(Nc2cc(F)cc(F)c2)nc1C(=O)NCC(C)(C)C [Compound P-39, 6-(3,5-difluoroanilino)-N-(2,2-dimethylpropyl)-3-methoxy-pyrazine-2-carboxamide] | ≥ 80 | ≥ 80 | ≥ 80 | ≥ 80 | ≥ 80 | ≥ 80 | ≥ 80 | ≥ 80 | –
COc1ncc(Nc2cc(F)cc(F)c2)nc1C(=O)NC1CCC1(C)C (stereo not drawn) [Compound P-43, 6-(3,5-difluoroanilino)-N-(2,2-dimethylcyclobutyl)-3-methoxy-pyrazine-2-carboxamide] | ≥ 80 | ≥ 80 | ≥ 80 | ≥ 80 | ≥ 80 | ≥ 80 | ≥ 80 | ≥ 80 | –
